Read-outs that look alike come from different tables or passages of the source. Non-standard residues stand in square brackets, D forms with d. Residues, ends and D or L forms follow the SMILES beside them. *: point of attachment. X1 = C[C@]12CC[C@H]3[C@@H](CCC4=CC(=O)CC[C@@]43C)[C@@H]1CC[C@@H]2C(=O)COC(=O)CCC(=O)*; dPhe(4-Cl) = N[C@H](Cc1ccc(Cl)cc1)C(=O)O; dPhe(4-F) = N[C@H](Cc1ccc(F)cc1)C(=O)O; d2Nal = N[C@H](Cc1ccc2ccccc2c1)C(=O)O; d3Pal = N[C@H](Cc1cccnc1)C(=O)O; ΔPro = O=C(O)[C@@H]1C=CCN1
Legend:
male marmosets = test: In vivo male marmoset study, plasma testosterone after s.c. injection; set-up: species or system Callithrix jacchus; settings: 0.5 mg s.c.
Experimental: (§1) In Vivo Studies in the Male and Female Common Marmoset (Callithrix Jacchus)
Male marmoset studies: To determine duration of action at GnRH receptor, 0.5 mg GnRH antagonist-steroid conjugate was administered as subcutaneous bolus in 1 ml saline at two sites in six adult male marmosets. Testosterone concentrations were monitored by RIA. GnRH antagonist (0.5 mg) was administered as a subcutaneous bolus in 1 ml saline at two sites in three marmosets. Testosterone concentrations were monitored. One 300 μl blood sample was withdrawn on the day prior to GnRH antagonist injection and at 0 hours, 4 hours and 8 hours on the day of injection and on the following 3 days. Three further samples were taken during the subsequent week.

[1] = biological target: progesterone binding globulin (PBG); test: Plasma protein binding assay, competition with [3H]progesterone in pregnant guinea pig plasma; settings: for IC50: read-out: IC50, inhibition of [3H]progesterone binding to PBG
Experimental: (§2) Plasma Protein Binding Assay
(§3) Plasma protein binding was determined by the competitive binding of steroid conjugates, in the presence of [1,2,6,7-^3H]progesterone or [^3H]cortisol, to pregnant guinea pig plasma or human pregnant serum respectively. 20 μl serum was diluted with 2 ml dextran-coated charcoal solution (0.25 g dextran T-70, 2.5 g charcoal decolorizing powder, activated acid washed [Merck Ltd., Lutterworth, Leicestershire] in 500 ml PBS) and incubated at room temperature. After 30 mins the suspension was centrifuged at 3000×g for 10 minutes, the supernatant was removed and the pellet was discarded. 100 μl of diluted serum was aliquoted into centrifuge tubes, followed by 1 pmol[^3H]steroid/100 μl PBS. 100 μl PBS (total binding) or 200 pmol/100 μl unlabelled competing ligand ([…]) was added to diluted serum in duplicate. Tubes were vortexed and incubated at room temperature for 1 hour, then for an additional 15 minutes on ice. A further 750 μl dextran-coated charcoal suspension was added and incubated for 10 minutes on ice, followed by centrifugation at 4° C. for 5 minutes. The supernatant fluid was counted.

[2] = tested on: cycling adult female marmosets; test: In vivo female marmoset study, inhibition of corpus luteum function; set-up: species or system Callithrix jacchus; settings: one animal; for duration of the luteal phase after treatment: mid-luteal phase
Experimental: as §1
Female marmoset studies: To identify the effective dose required to inhibit corpus luteum function, 1.0, 0.5 or 0.25 mg of GnRH antagonist-steroid conjugate was administered as subcutaneous bolus in 1 ml saline at two sites during mid-luteal phase. Progesterone concentrations were monitored by RIA. One 300 μl blood sample was withdrawn on the day prior to GnRH antagonist injection. Further blood samples of equal size were withdrawn at 0, 4 and 8 hours on day of injection and on the following 3 days. Blood samples were taken three times per week until the next ovulation.

[3] = biological target: T1, cortisol binding globulin (CBG) (Homo sapiens, UniProt P08185); test: Plasma protein binding assay, competition with [3H]cortisol in human pregnant serum; settings: data not shown, read-out: IC50, prevention of [3H]cortisol binding
T1 construct: from tissue; host or cells: human pregnant serum (charcoal-stripped, diluted)
T1 sequence (P08185 23-405): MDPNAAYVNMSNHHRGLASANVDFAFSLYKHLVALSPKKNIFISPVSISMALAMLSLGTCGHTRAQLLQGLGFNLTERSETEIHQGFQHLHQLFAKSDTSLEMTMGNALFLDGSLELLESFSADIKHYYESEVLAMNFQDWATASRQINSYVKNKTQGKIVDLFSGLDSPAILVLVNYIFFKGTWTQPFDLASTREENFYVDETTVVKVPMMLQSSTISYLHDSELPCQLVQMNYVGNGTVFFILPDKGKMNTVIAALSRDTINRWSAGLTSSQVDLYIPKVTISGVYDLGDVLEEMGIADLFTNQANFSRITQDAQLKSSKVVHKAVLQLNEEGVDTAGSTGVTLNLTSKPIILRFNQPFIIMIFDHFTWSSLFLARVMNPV
Experimental: as §2, §3

[4] = In vivo male rabbit study, disappearance of iodinated analogue from whole blood; settings: rabbit, in vivo, iv
Experimental: In Vivo Studies in the Male Rabbit
To determine biological half-life of GnRH agonist-progesterone conjugates, 0.5 ml saline containing approximately 10,000,000 cpm of iodinated [D-Ala^6]GnRH or [D-Lys^6]GnRH-progesterone conjugate was injected as an i.v. bolus into the ear vein of a male rabbit. Rabbits were sedated with 0.4 ml Aceprom 10 (Milborrow Animal Health, Republic of South Africa) injected intramuscularly 3-4 minutes before start of experiment. A repeat injection was carried out after 2 hours. 1 ml blood samples were collected in heparinized tubes from an indwelling cannula placed in a vein of the contralateral ear. Whole blood was counted directly to determine disappearance from circulation. All experiments were carried out in accordance with Republic of South Africa regulations.

Which results are given for CC(=O)N[C@H](Cc1ccc2ccccc2c1)C(=O)N[C@H](Cc1ccc(Cl)cc1)C(=O)N[C@H](Cc1cccnc1)C(=O)N[C@@H](CO)C(=O)N[C@@H](CCCNC(=N)N)C(=O)N[C@H](CCCCNC(=O)CCC(=O)OCC(=O)[C@H]1CC[C@H]2[C@@H]3CCC4=CC(=O)CC[C@]4(C)[C@H]3CC[C@]12C)C(=O)N[C@@H](CC(C)C)C(=O)N[C@@H](CCCNC(=N)N)C(=O)N1CCC[C@H]1C(=O)N[C@H](C)C(N)=O [antagonist A-progesterone, AcD-Nal-D-Cpa-D-Pal-Ser-Arg-D-Lys-Leu-Arg-Pro-D-Ala-NH2 conjugated to 21-hydroxyprogesterone 21-succinate at the ε amine of D-Lys at position 6] (Ac-[d2Nal][dPhe(4-Cl)][d3Pal]SR[dK](X1)LRP[dA]-NH2)?
day by which testosterone had recovered (male marmosets): ≤ 6 days; effect on plasma testosterone concentrations (male marmosets): rapidly decreased testosterone concentrations; time to which reduction in testosterone concentration was maintained post-injection (male marmosets): at least 72 hours; IC50 ([1]; listed as antagonist A-progesterone conjugate): 1000 nM; IC50 ([1]; listed as antagonist peptide A-progesterone): 850 nM; luteal regression and subsequent ovulation ([2]; 0.25 mg s.c.): full luteal regression and subsequent ovulation did not occur; plasma progesterone concentrations ([2]; 0.25 mg s.c.): transient reduction in plasma progesterone concentrations; duration of the luteal phase after treatment ([2]; 0.5 mg s.c., before 21.0±1.2 days): 11 days; duration of the luteal phase after treatment ([2]; 1.0 mg s.c., before 24.8±2.2 days): 8 days

What does the source list for C[C@]12CCC(=O)C=C1CC[C@@H]1[C@@H]2[C@@H](O)C[C@@]2(C)[C@H]1CC[C@]2(O)C(=O)CO [cortisol, reference compound]?
inhibition of specific [3H]progesterone binding (specificity) [1]: failure of cortisol to inhibit specific [^3H]progesterone binding; IC50 [3]: 6.7 nM

With [D-Ala^6]GnRH [reference compound] as the compound, how does the “second phase half-life (metabolism and renal clearance)” value [4] read?
Its value is 21 ± 3 min.

Which “effect on plasma testosterone concentrations” value (male marmosets) does the source give for CC(=O)N[C@H](Cc1ccc2ccccc2c1)C(=O)N[C@H](Cc1ccc(Cl)cc1)C(=O)N[C@H](Cc1cccnc1)C(=O)N[C@@H](CO)C(=O)N[C@@H](CCCNC(=N)N)C(=O)N[C@H](CCCCN)C(=O)N[C@@H](CC(C)C)C(=O)N[C@@H](CCCNC(=N)N)C(=O)N1CCC[C@H]1C(=O)N[C@H](C)C(N)=O [antagonist A, [AcD-Nal^1,D-Cpa^2,D-Pal^3,Arg^5,D-Lys^6,D-Ala^10]GnRH, reference compound] (Ac-[d2Nal][dPhe(4-Cl)][d3Pal]SR[dK]LRP[dA]-NH2) here?
Its value is “rapid decline in plasma testosterone concentrations”.

And the “time by which testosterone had increased again” value (male marmosets)?
Its value is ≤ 24 h.

What about the “time to which reduction in testosterone concentration was maintained post-injection” value (male marmosets) of the same compound?
The value was 8 h.

Which IC50 ([1]; listed as antagonist B-progesterone conjugate) does the source give for CC(=O)N1CC=C[C@H]1C(=O)N[C@H](Cc1ccc(F)cc1)C(=O)N[C@H](Cc1c[nH]c2ccccc12)C(=O)N[C@@H](CO)C(=O)N[C@@H](Cc1ccc(O)cc1)C(=O)N[C@H](CCCCNC(=O)CCC(=O)OCC(=O)[C@H]1CC[C@H]2[C@@H]3CCC4=CC(=O)CC[C@]4(C)[C@H]3CC[C@]12C)C(=O)N[C@@H](CC(C)C)C(=O)N[C@@H](CCCNC(=N)N)C(=O)N1CCC[C@H]1C(=O)NCC(N)=O [antagonist B-progesterone, Ac-ΔPro-D-Fpa-D-Trp-Ser-Tyr-D-Lys-Leu-Arg-Pro-Gly-NH2 conjugated to 21-hydroxyprogesterone 21-succinate at the ε amine of D-Lys at position 6] (Ac-[ΔPro][dPhe(4-F)][dW]SY[dK](X1)LRPG-NH2) here?
Its IC50 is 530 nM.

What about the IC50 ([1]; listed as antagonist peptide B-progesterone) of the same compound?
Its IC50 is 450 nM.

Which IC50 [1] does the source give for CC(=O)[C@H]1CC[C@H]2[C@@H]3CCC4=CC(=O)CC[C@]4(C)[C@H]3CC[C@]12C [progesterone, reference compound] here?
The IC50 was 96 nM.

And the IC50 [3]?
The IC50 was 73 nM.

— US7700559B2, “Gonadotropin releasing hormone analogues conjugates with steroid hormones” (Medical Research Council, priority 2003, dated 2010)
